Measurements taken from US7807678B2, “Peptidomimetics of biologically active metallopeptides” (Palatin Technologies, Inc., priority 2001, dated 2010).

Tests used:
[1] = target: T1, MC1-R (B-16 mouse melanoma cells) (Mus musculus, UniProt Q01727); assay: Competitive inhibition binding assay, 125I-NDP-α-MSH, MC1-R; conditions: for Inhibition at 1 μM MC1-R: 1 μM compound, inhibition of 125I-NDP-α-MSH binding, mean of triplicates, results less than 0% reported as 0%
T1 construct: B-16 mouse melanoma cells (containing MC1-R); endogenous in cells; host or cells: B-16 mouse melanoma cells
In short: (§1)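 Membranes from hMC3-R, hMC4-R or hMC5-R cells, or B-16 mouse melanoma cells (MC1-R), were incubated 90 min at room temperature with 0.4 nM 125I-NDP-α-MSH in HEPES pH 7.2 with Mg2+/Ca2+/K+, and test compound generally at 1 μM. Filter-bound radioactivity was gamma counted. Specific binding was defined with 1 μM α-MSH; triplicate means.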

MC3-R = MC3-R (Homo sapiens, UniProt P41968); assay: Competitive inhibition binding assay, 125I-NDP-α-MSH, MC3-R; design: expressed in transfected cells; conditions: for Inhibition at 1 μM MC3-R: 1 μM compound, inhibition of 125I-NDP-α-MSH binding, mean of triplicates, results less than 0% reported as 0%
In short: as §1

MC4-R = MC4-R (Homo sapiens, UniProt P32245); assay: Competitive inhibition binding assay, 125I-NDP-α-MSH, MC4-R; design: expressed in transfected cells; conditions: for Inhibition at 1 μM MC4-R: 1 μM compound, inhibition of 125I-NDP-α-MSH binding, mean of triplicates, results less than 0% reported as 0%
In short: as §1

MC5-R = MC5-R (Homo sapiens, UniProt P33032); assay: Competitive inhibition binding assay, 125I-NDP-α-MSH, MC5-R; design: expressed in transfected cells; conditions: for Inhibition at 1 μM MC5-R: 1 μM compound, inhibition of 125I-NDP-α-MSH binding, mean of triplicates, results less than 0% reported as 0%
In short: as §1

T1 sequence (Q01727 whole entry): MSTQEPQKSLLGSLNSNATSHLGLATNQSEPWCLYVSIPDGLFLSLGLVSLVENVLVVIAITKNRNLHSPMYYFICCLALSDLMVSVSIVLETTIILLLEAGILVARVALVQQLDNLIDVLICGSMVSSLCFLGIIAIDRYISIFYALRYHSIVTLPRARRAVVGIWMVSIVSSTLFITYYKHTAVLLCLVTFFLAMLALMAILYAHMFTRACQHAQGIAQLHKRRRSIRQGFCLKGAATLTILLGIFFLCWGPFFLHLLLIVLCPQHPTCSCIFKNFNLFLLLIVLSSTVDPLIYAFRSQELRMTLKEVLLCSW
MC3-R, sequence (P41968 whole entry): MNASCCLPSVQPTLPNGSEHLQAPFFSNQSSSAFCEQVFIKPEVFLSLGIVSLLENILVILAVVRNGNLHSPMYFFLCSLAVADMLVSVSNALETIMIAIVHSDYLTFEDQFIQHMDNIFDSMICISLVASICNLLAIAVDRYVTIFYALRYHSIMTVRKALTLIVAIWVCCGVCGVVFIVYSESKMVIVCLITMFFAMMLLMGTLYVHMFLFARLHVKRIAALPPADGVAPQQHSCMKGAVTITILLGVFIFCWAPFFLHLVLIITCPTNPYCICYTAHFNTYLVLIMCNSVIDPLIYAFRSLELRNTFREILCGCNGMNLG
MC4-R, sequence (P32245 whole entry): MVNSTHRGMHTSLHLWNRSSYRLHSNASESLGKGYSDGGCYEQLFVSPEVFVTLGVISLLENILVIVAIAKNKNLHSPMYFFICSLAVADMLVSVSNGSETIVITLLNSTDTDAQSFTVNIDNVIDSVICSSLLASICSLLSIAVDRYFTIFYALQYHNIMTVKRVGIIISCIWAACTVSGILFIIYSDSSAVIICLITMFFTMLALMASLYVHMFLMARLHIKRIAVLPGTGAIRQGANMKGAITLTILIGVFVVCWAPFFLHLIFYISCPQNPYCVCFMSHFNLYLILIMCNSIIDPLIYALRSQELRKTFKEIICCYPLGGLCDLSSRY
MC5-R, sequence (P33032 whole entry): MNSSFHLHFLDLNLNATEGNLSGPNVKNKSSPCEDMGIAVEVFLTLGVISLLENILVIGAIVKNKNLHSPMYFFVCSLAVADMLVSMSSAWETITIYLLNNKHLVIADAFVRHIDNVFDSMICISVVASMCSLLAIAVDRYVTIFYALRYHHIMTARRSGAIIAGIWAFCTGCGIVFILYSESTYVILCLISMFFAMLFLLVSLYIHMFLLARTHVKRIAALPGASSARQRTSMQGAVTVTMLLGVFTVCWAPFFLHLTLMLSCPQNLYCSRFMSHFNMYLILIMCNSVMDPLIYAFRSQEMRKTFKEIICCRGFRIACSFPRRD

Structure (SMILES) | Inhibition at 1 μM MC1-R [1] [%] | Inhibition at 1 μM MC3-R (MC3-R) [%] | Inhibition at 1 μM MC4-R (MC4-R) [%] | Inhibition at 1 μM MC5-R (MC5-R) [%] | inhibition at 1 µM [1] [%] | inhibition at 1 µM (MC3-R) [%] | inhibition at 1 µM (MC4-R) [%] | inhibition at 1 µM (MC5-R) [%]
NCCCNC(=O)[C@@H]1C[C@@H](OCc2ccccc2)CN1C(=O)[C@@H](Cc1ccccc1)NC(=O)[C@H](N)Cc1ccc2ccccc2c1 [Example 158] | 0 | 5 | 0 | 0 | – | – | – | –
NCCCNC(=O)[C@@H]1C[C@@H](OCc2ccccc2)CN1C(=O)[C@@H](Cc1ccccc1)NC(=O)C1CCC(CN)CC1 (some centres unmarked) [Example 168] | 18 | 0 | 10 | 0 | – | – | – | –
CCCNC(=N)NCCCC1C(=O)N(CCc2ccc3ccccc3c2)CCN1C(=O)C(N)Cc1ccc(Cl)cc1Cl (centres unmarked) [Example 74] | 13 | 34 | 88 | 26 | – | – | – | –
NCCCNC(=O)[C@@H]1C[C@@H](OCc2ccccc2)CN1C(=O)[C@@H](Cc1ccccc1)NC(=O)[C@H](N)C(c1ccccc1)c1ccccc1 [Example 173] | 7 | 13 | 7 | 0 | – | – | – | –
NCCCNC(=O)[C@@H]1C[C@@H](OCc2ccccc2)CN1C(=O)[C@@H](Cc1ccccc1)NC(=O)[C@@H](N)Cc1cccc2ccccc12 [Example 165] | 0 | 2 | 16 | 0 | – | – | – | –
N=C(N)NCCC[C@H]1C(=O)N(CCc2ccc3ccccc3c2)CCN1C(=O)COc1ccc(Cl)cc1Cl [Example 77] | – | – | – | – | 15 | 0 | 24 | 20
NCCCNC(=O)[C@@H]1C[C@@H](OCc2ccccc2)CN1C(=O)[C@@H](Cc1ccccc1)NC(=O)[C@H](Cc1cnc[nH]1)NC(=O)c1ccccc1 [Example 140] | 78 | 3 | 1 | 10 | – | – | – | –
N[C@H](Cc1ccc(Cl)cc1Cl)C(=O)N1CCN(CCc2ccc3ccccc3c2)C(=O)[C@@H]1CCCNc1ncccn1 [Example 68] | 3 | 9 | 12 | 19 | – | – | – | –
CCCCCCC(=O)N[C@@H](COCc1ccccc1)C(=O)N[C@H](Cc1ccccc1Cl)C(=O)N1CCN(CCc2c[nH]c3ccccc23)C(=O)[C@@H]1CCCCN [Example 11] | 96 | 51 | 99 | 82 | – | – | – | –
NCCCNC(=O)[C@@H]1C[C@@H](OCc2ccccc2)CN1C(=O)[C@@H](Cc1ccccc1)NC(=O)[C@@H](N)Cc1ccc(-c2ccccc2)cc1 [Example 171] | 11 | 0 | 9 | 25 | – | – | – | –
N=C(N)c1ccc(C[C@H]2C(=O)N(CCc3ccc4ccccc4c3)CCN2C(=O)[C@H](N)Cc2ccc(Cl)cc2Cl)cc1 [Example 128] | 5 | 0 | 31 | 21 | – | – | – | –
N[C@H](Cc1ccc(Cl)cc1Cl)C(=O)N1CCN(CCc2ccc3ccccc3c2)C(=O)[C@@H]1CCCCNC(=O)c1cccnc1 [Example 60] | 4 | 6 | 23 | 13 | – | – | – | –
NCCCNC(=O)[C@@H]1C[C@@H](OCc2ccccc2)CN1C(=O)[C@@H](Cc1ccccc1)NC(=O)[C@H](N)C1Cc2ccccc2C1 [Example 175] | 3 | 0 | 19 | 0 | – | – | – | –
N=C(N)NCCCC1C(=O)N(CCc2c[nH]c3ccccc23)CCN1C(=O)C(Cc1ccccc1Cl)NC(=O)C1CCC(c2ccccc2)N1 (centres unmarked) [Example 21] | 62 | 22 | 83 | 19 | – | – | – | –
CCCC(CCC)C(=O)N[C@@H](Cc1cnc[nH]1)C(=O)N[C@H](Cc1ccccc1)C(=O)N1C[C@H](OCc2ccccc2)C[C@H]1C(=O)NCCCN [Example 143] | 73 | 0 | 0 | 7 | – | – | – | –
N=C(N)NCCC[C@H]1C(=O)N(CCc2c[nH]c3ccccc23)CCN1C(=O)[C@@H](Cc1ccccc1Cl)NC(=O)[C@@H]1Cc2ccccc2CN1 [Example 18] | 95 | 50 | 99 | 62 | – | – | – | –

The remaining lines, values ahead:

Inhibition at 1 μM MC1-R [1] [%] | Inhibition at 1 μM MC3-R (MC3-R) [%] | Inhibition at 1 μM MC4-R (MC4-R) [%] | Inhibition at 1 μM MC5-R (MC5-R) [%] | inhibition at 1 µM [1] [%] | inhibition at 1 µM (MC3-R) [%] | inhibition at 1 µM (MC4-R) [%] | inhibition at 1 µM (MC5-R) [%] | Structure (SMILES)
96 | 19 | 94 | 66 | – | – | – | – | NCCCC[C@H]1C(=O)N2C(CC[C@@H]2COc2ccc3c(c2)CCCC3)N1C(=O)[C@@H](Cc1ccc(Cl)cc1)NC(=O)[C@@H]1Cc2ccccc2CN1 (some centres unmarked) [Example 108]
0 | 4 | 0 | 0 | – | – | – | – | NCCCCC1C(=O)N2C(COc3ccccc3)CCC2N1C(=O)C(N)Cc1ccccc1Cl (centres unmarked) [Example 104]
39 | 0 | 12 | 17 | – | – | – | – | NCCCC[C@H]1C(=O)N2C(CC[C@@H]2COc2ccc3ccccc3c2)N1C(=O)[C@@H](Cc1ccccc1Cl)NC(=O)C1(N)CCc2ccccc21 (some centres unmarked) [Example 96]
– | – | – | – | 0 | 0 | 0 | 0 | [2H]N[C@@H](Cc1cnc[nH]1)C(=O)N[C@@H](Cc1ccccc1)C(=O)N1CC2C[C@H](Oc3ccc4ccccc4c3)CN2C(=O)[C@@H]1CCCCN (some centres unmarked) [Example 179]
81 | 64 | 94 | 90 | – | – | – | – | N=C(N)NCCC[C@H]1C(=O)N(CCc2c[nH]c3ccccc23)CCN1C(=O)[C@@H](Cc1ccc(Cl)cc1)NC(=O)[C@@H](N)COCc1ccc(Cl)cc1 [Example 15]
26 | 14 | 72 | 30 | – | – | – | – | NCCCC[C@H]1C(=O)N(CCc2ccc3ccccc3c2)CCN1C(=O)[C@H](N)Cc1ccc2ccccc2c1 [Example 59]
7 | 0 | 22 | 21 | – | – | – | – | NCCCC[C@H]1C(=O)N2C(CC[C@@H]2COc2ccc3ccccc3c2)N1C(=O)[C@@H](Cc1ccccc1Cl)NC(=O)[C@@H]1C[C@H](Oc2ccccc2)CN1 (some centres unmarked) [Example 92]
42 | 2 | 89 | 38 | – | – | – | – | NCCCC[C@H]1C(=O)N2C(CC[C@@H]2COc2ccc3ccccc3c2)N1C(=O)[C@@H](Cc1ccccc1Cl)NC(=O)[C@@H]1Cc2ccccc2CN1 (some centres unmarked) [Example 83]
44 | 0 | 74 | 37 | – | – | – | – | NCCCC[C@H]1C(=O)N2C(CC[C@@H]2COc2ccc3ccccc3c2)N1C(=O)[C@@H](Cc1ccccc1Cl)NC(=O)[C@@H]1C[C@@H](OCc2ccccc2)CN1 (some centres unmarked) [Example 84]
11 | 13 | 16 | 14 | – | – | – | – | NCCCC[C@H]1C(=O)N2C(CC[C@@H]2COc2ccc3ccccc3c2)N1C(=O)[C@@H](Cc1ccccc1Cl)NCc1ccccc1 (some centres unmarked) [Example 102]
22 | 0 | 8 | 5 | – | – | – | – | [2H]N1CCCC1C(=O)NC(Cc1ccccc1)C(=O)N1CC(OCc2ccccc2)CC1C(=O)NCCCN (centres unmarked) [Example 167]
9 | 0 | 0 | 0 | – | – | – | – | NCCCCC1C(=O)N2C(COc3ccccc3)CCC2N1C(=O)C(N)Cc1ccc(Cl)cc1 (centres unmarked) [Example 103]
93 | 4 | 78 | 56 | – | – | – | – | NCCCC[C@H]1C(=O)N2C(CC[C@@H]2COc2ccc3c(c2)CCCC3)N1C(=O)[C@@H](Cc1ccc(Cl)cc1)NC(=O)[C@@H](N)COCc1ccccc1 (some centres unmarked) [Example 109]
